Laboratory results taken from ChEMBL document CHEMBL4340556, “Novel benzothiazole hydrazine carboxamide hybrid scaffolds as potential in vitro GABA AT enzyme inhibitors: Synthesis, molecular docking and antiepileptic evaluation” (Bioorg Med Chem Lett, 2019).
Active and inactive are the calls of the source. The rule behind the calls is not given here.

Key:
[1] = Neurotoxicity in ip dosed albino mouse assessed as motor impairment measured at 4 hrs by rotarod test; type: toxicity, organism-based; details: in vivo
[2] = Neurotoxicity in ip dosed albino mouse assessed as motor impairment measured at 0.5 hrs by rotarod test; type: toxicity, organism-based; details: in vivo
[3] = test system: Mus musculus; test: Anticonvulsant activity in ip dosed albino mouse model of maximal electroshock-induced seizures assessed as prevention of tonic hind limb extension pretreated for 0.5 hrs followed by 50 mA current-induction for 0.25 secs; type: functional
[4] = test system: Mus musculus; test: Anticonvulsant activity in ip dosed albino mouse model of maximal electroshock-induced seizures assessed as prevention of tonic hind limb extension pretreated for 4 hrs followed by 50 mA current-induction for 0.25 secs; type: functional
[5] = test system: Mus musculus; test: Anticonvulsant activity in ip dosed albino mouse model of subcutaneous pentylenetetrazole-induced seizure assessed as failure to observe even a single episode of clonic spasms for at least 5 secs pretreated for 4 hrs followed by pentylenetetrazole induction; type: functional
[6] = test system: Mus musculus; test: Anticonvulsant activity in ip dosed albino mouse model of subcutaneous pentylenetetrazole-induced seizure assessed as failure to observe even a single episode of clonic spasms for at least 5 secs pretreated for 0.5 hrs followed by pentylenetetrazole induction; type: functional
[7] = target: 4-aminobutyrate aminotransferase, mitochondrial (Mus musculus, UniProt P61922); test: Inhibition of GABA aminotransferase in mouse brain homogenates using GABA and alpha-ketoglutarate as substrates preincubated for 30 mins followed by beta-NADP addition and measured for 20 mins by spectrophotometric method; type: tissue-based
[8] = Hepatotoxicity in albino mouse assessed as decrease in serum SGOT level at 30 mg/kg, po administered daily for one month measured post-last dose; type: toxicity, organism-based; details: in vivo
[9] = Hepatotoxicity in albino mouse assessed as increase in serum SGPT level at 30 mg/kg, po administered daily for one month measured post-last dose; type: toxicity, organism-based; details: in vivo
[10] = Hepatotoxicity in albino mouse assessed as increase in serum serum alkaline phosphatase level at 30 mg/kg, po administered daily for one month measured post-last dose; type: toxicity, organism-based; details: in vivo
[11] = test system: Mus musculus; test: Anticonvulsant activity in po dosed albino mouse brain assessed as increase in brain GABA level administered for 7 days by TLC analysis; type: functional
[12] = Hepatotoxicity in albino mouse assessed as decrease in serum SGPT level at 30 mg/kg, po administered daily for one month measured post-last dose; type: toxicity, organism-based; details: in vivo
[13] = Hepatotoxicity in albino mouse assessed as decrease in serum alkaline phosphatase level at 30 mg/kg, po administered daily for one month measured post-last dose; type: toxicity, organism-based; details: in vivo
[14] = Hepatotoxicity in albino mouse assessed as appearance of normal hepatocyte with clearing of cytoplasm at 30 mg/kg, po administered daily for one month measured post-last dose by histopathological analysis; type: toxicity, organism-based; details: in vivo

Chain of 4-aminobutyrate aminotransferase, mitochondrial (P61922 whole entry): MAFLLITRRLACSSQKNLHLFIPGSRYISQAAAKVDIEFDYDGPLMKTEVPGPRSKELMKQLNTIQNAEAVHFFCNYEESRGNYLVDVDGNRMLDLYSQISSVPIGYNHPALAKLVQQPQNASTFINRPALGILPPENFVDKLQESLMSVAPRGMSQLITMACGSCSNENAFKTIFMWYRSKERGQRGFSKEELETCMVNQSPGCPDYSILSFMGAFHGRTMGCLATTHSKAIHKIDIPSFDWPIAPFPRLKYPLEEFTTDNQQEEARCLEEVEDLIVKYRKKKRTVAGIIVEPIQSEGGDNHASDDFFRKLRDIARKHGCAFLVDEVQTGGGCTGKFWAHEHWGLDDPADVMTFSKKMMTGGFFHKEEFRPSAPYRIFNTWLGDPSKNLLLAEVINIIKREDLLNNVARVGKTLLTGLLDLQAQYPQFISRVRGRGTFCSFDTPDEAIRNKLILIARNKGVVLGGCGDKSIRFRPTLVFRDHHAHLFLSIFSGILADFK

| Compound | MED=>50 [1] | MED=>50 [2] | MED=>50 [3] | MED=>50 [4] | MED=>50 [5] | MED=>50 [6] | IC50 [7] [µM] | Activity [8] | Activity [9] | Activity [10] | fold change (FC) [11] | Activity [12] | Activity [13] | Activity [14] |
| --- | --- | --- | --- | --- | --- | --- | --- | --- | --- | --- | --- | --- | --- | --- |
| O=C(Nc1nc2ccc(Cl)cc2s1)NN1C(=O)CSC1c1ccccc1Cl (stereo not drawn) | Non-Toxic | Non-Toxic | 100 mg/kg | 100 mg/kg | 300 mg/kg | 300 mg/kg | – | – | – | – | – | – | – | – |
| Cc1ccccc1C1SCC(=O)N1NC(=O)Nc1nc2ccc(Cl)cc2s1 (stereo not drawn) | 300 mg/kg | 300 mg/kg | 300 mg/kg | 300 mg/kg | inactive | inactive | – | – | – | – | – | – | – | – |
| Cc1ccccc1C1C(Cl)C(=O)N1NC(=O)Nc1nc2ccc(Cl)cc2s1 (stereo not drawn) | 300 mg/kg | 300 mg/kg | 300 mg/kg | 300 mg/kg | inactive | inactive | – | – | – | – | – | – | – | – |
| O=C(Nc1nc2ccc(Cl)cc2s1)NN1C(=O)CSC1c1ccccc1 (stereo not drawn) | Non-Toxic | Non-Toxic | 300 mg/kg | 300 mg/kg | 300 mg/kg | 300 mg/kg | – | – | – | – | – | – | – | – |
| O=C(Nc1nc2ccc(Cl)cc2s1)NN1C(=O)C(Cl)C1c1ccccc1Cl (stereo not drawn) | Non-Toxic | Non-Toxic | 300 mg/kg | 300 mg/kg | inactive | inactive | – | – | – | – | – | – | – | – |
| COc1ccc(C2C(Cl)C(=O)N2NC(=O)Nc2nc3ccc(Cl)cc3s2)cc1 (stereo not drawn) | Non-Toxic | Non-Toxic | 300 mg/kg | 300 mg/kg | inactive | inactive | – | – | – | – | – | – | – | – |
| O=C(Nc1nc2ccc(Cl)cc2s1)NN1C(=O)C(Cl)C1c1ccccc1 (stereo not drawn) | Non-Toxic | Non-Toxic | 300 mg/kg | 300 mg/kg | inactive | inactive | – | – | – | – | – | – | – | – |
| O=C1NC(=O)C(c2ccccc2)(c2ccccc2)N1 [PHENYTOIN] | 100 mg/kg | 100 mg/kg | 30 mg/kg | 30 mg/kg | inactive | inactive | – | – | – | – | – | – | – | – |
| CC(=O)Oc1ccccc1C1SCC(=O)N1NC(=O)Nc1nc2ccc(Cl)cc2s1 (stereo not drawn) | Non-Toxic | Non-Toxic | 300 mg/kg | 300 mg/kg | inactive | inactive | – | – | – | – | – | – | – | – |
| O=C(Nc1nc2ccc(Cl)cc2s1)NN1C(=O)CSC1c1ccc([N+](=O)[O-])cc1 (stereo not drawn) | Non-Toxic | Non-Toxic | 30 mg/kg | 100 mg/kg | 100 mg/kg | 100 mg/kg | 58.1 | Toxic | Toxic | Toxic | – | – | – | – |
| CC(=O)Oc1ccccc1C1C(Cl)C(=O)N1NC(=O)Nc1nc2ccc(Cl)cc2s1 (stereo not drawn) | Non-Toxic | Non-Toxic | 300 mg/kg | 300 mg/kg | inactive | inactive | – | – | – | – | – | – | – | – |
| O=C(Nc1nc2ccc(Cl)cc2s1)NN1C(=O)C(Cl)C1c1ccc(Cl)cc1Cl (stereo not drawn) | Non-Toxic | Non-Toxic | 30 mg/kg | 100 mg/kg | 100 mg/kg | 100 mg/kg | 51.4 | Toxic | Toxic | Toxic | – | – | – | – |
| O=C(Nc1nc2ccc(Cl)cc2s1)NN1C(=O)C(Cl)C1c1ccc([N+](=O)[O-])cc1 (stereo not drawn) | Non-Toxic | Non-Toxic | 100 mg/kg | 100 mg/kg | 300 mg/kg | 300 mg/kg | – | – | – | – | – | – | – | – |
| O=C(Nc1nc2ccc(Cl)cc2s1)NN1C(=O)CSC1c1ccc(Cl)cc1Cl (stereo not drawn) | Non-Toxic | Non-Toxic | 30 mg/kg | 100 mg/kg | 100 mg/kg | 100 mg/kg | 15.3 | Toxic | – | – | 1.5 | Toxic | Toxic | Non-Toxic |
| CCC1(C)CC(=O)NC1=O (stereo not drawn) [ETHOSUXIMIDE] | Non-Toxic | Non-Toxic | inactive | inactive | inactive | 300 mg/kg | – | – | – | – | – | – | – | – |
| NC(=O)N1c2ccccc2C=Cc2ccccc21 [CARBAMAZEPINE] | 300 mg/kg | 100 mg/kg | 30 mg/kg | 100 mg/kg | 100 mg/kg | 100 mg/kg | – | – | – | – | – | – | – | – |
| COc1ccc(C2SCC(=O)N2NC(=O)Nc2nc3ccc(Cl)cc3s2)cc1 (stereo not drawn) | Non-Toxic | Non-Toxic | 300 mg/kg | inactive | inactive | inactive | – | – | – | – | – | – | – | – |
| CCCC(CCC)C(=O)O [VALPROIC ACID] | Non-Toxic | Non-Toxic | inactive | inactive | inactive | 300 mg/kg | – | – | – | – | – | – | – | – |
| C=CC(N)CCC(=O)O (stereo not drawn) [VIGABATRIN] | – | – | – | – | – | – | 39.7 | – | – | – | – | – | – | – |
